Assay results as given in patent publication US10047096B2, “Substituted pyridobenzodiazepinone-derivatives and use thereof” (Bayer Pharma Aktiengesellschaft, priority 2014, dated 2018).

These compounds were tested against human PDGFRβ (Homo sapiens (Human), UniProt P09619) (assay: PDGFRβ kinase assay (PDGFRβ-HTRF)). Details: 10 μM ATP; some mean values from multiple determinations.
Type: biochemical
Method: The PDGFRβ-inhibitory activity of the inventive compounds was determined in the PDGFRβ-HTRF assay described hereinafter.
The kinase used was a recombinant fusion protein composed of N-terminal GST and a C-terminal fragment of human PDGFRβ (amino acids R561-L1106), expressed in baculovirus-infected insect cells (Sf9) and purified by affinity chromatography (from ProQinase GmbH, Freiburg, Germany). The substrate used for the kinase reaction was biotinylated poly-Glu,Tyr (4:1) copolymer (from Cisbio Bioassays, Codolet, France).
For the assay, 50 nl of a 100-fold concentrated solution of the test substance in DMSO was pipetted into a black “low-volume 384 well” microtitre plate (from Greiner Bio-One, Frickenhausen, Germany), then 2 μl of a solution of PDGFRβ in assay buffer [50 mM HEPES/NaOH pH 7.5, 10 mM MgCl2, 2.5 mM dithiothreitol, 0.01% (v/v) Triton-X100 (from Sigma)] was added and the mixture was incubated for 15 min, in order to enable preliminary binding of the substance to the enzyme before the kinase reaction. […] The resulting mixture was incubated at 22° C. for 1 h to allow formation of a complex of the biotinylated phosphorylated substrate and the detection reagents.
Subsequently, the amount of the phosphorylated substrate was evaluated by measuring the resonance energy transfer from the PT66-Eu chelate to the streptavidin-XL665. […] The IC50 values were calculated by a 4-parameter fit.

Chain of human PDGFRβ (P09619 561-1106): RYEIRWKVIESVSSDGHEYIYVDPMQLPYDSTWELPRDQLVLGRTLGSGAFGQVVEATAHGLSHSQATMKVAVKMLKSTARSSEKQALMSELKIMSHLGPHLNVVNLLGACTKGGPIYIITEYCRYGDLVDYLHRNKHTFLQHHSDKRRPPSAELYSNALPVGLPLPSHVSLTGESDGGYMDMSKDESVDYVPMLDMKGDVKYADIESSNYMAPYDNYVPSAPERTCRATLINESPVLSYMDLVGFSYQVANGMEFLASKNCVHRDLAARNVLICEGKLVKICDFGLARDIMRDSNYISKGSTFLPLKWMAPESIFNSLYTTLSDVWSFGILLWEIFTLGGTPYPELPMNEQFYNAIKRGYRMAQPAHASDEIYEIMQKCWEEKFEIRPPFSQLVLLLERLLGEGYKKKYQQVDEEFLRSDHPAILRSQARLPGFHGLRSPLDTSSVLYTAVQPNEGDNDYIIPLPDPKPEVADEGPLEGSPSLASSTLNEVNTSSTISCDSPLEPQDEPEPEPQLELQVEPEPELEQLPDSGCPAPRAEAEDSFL

IC50	Structure (SMILES)
1.66 nM	Cc1cc(F)c(Nc2ccnc3c2C(=O)Nc2cc(CN4CCCC(C(N)=O)C4)ccc2N3)cc1O (racemic) [Example 57, rac-1-({4-[(2-Fluoro-5-hydroxy-4-methylphenyl)amino]-5-oxo-6,11-dihydro-5H-pyrido[2,3-b][1,5]benzodiazepin-8-yl}methyl)piperidine-3-carboxamide]
1.39 nM	Cc1cc(F)c(Nc2ccnc3c2C(=O)Nc2cc(CN4CCCC(O)CC4)ccc2N3)cc1O (racemic) [Example 62, rac-4-[(2-Fluoro-5-hydroxy-4-methylphenyl)amino]-8-[(4-hydroxyazepan-1-yl)methyl]-6,11-dihydro-5H-pyrido[2,3-b][1,5]benzodiazepin-5-one]
3.75 nM	COC1CCCN(Cc2ccc3c(c2)NC(=O)c2c(Nc4cc(O)c(C)cc4F)ccnc2N3)C1 (racemic) [Example 66, rac-4-[(2-Fluoro-5-hydroxy-4-methylphenyl)amino]-8-[(3-methoxypiperidin-1-yl)methyl]-6,11-dihydro-5H-pyrido[2,3-b][1,5]benzodiazepin-5-one]
2.23 nM	CCOC1CCCN(Cc2ccc3c(c2)NC(=O)c2c(Nc4cc(O)c(C)cc4F)ccnc2N3)C1 (racemic) [Example 67, rac-8-[(3-Ethoxypiperidin-1-yl)methyl]-4-[(2-fluoro-5-hydroxy-4-methylphenyl)amino]-6,11-dihydro-5H-pyrido[2,3-b][1,5]benzodiazepin-5-one]
1.85 nM	CCCOC1CCCN(Cc2ccc3c(c2)NC(=O)c2c(Nc4cc(O)c(C)cc4F)ccnc2N3)C1 (racemic) [Example 68, rac-4-[(2-Fluoro-5-hydroxy-4-methylphenyl)amino]-8-[(3-propoxypiperidin-1-yl)methyl]-6,11-dihydro-5H-pyrido[2,3-b][1,5]benzodiazepin-5-one]
1.98 nM	Cc1cc(F)c(Nc2ccnc3c2C(=O)Nc2cc(CN4CCCC(O)(c5ccccc5)C4)ccc2N3)cc1O (racemic) [Example 73, rac-4-[(2-Fluoro-5-hydroxy-4-methylphenyl)amino]-8-[(3-hydroxy-3-phenylpiperidin-1-yl)methyl]-6,11-dihydro-5H-pyrido[2,3-b][1,5]benzodiazepin-5-one]
4.9 nM	Cc1cc(F)c(Nc2ccnc3c2C(=O)Nc2cc(CNC(C)C4CCCCC4)ccc2N3)cc1O (racemic) [Example 77, rac-8-{[(1-Cyclohexylethyl)amino]methyl}-4-[(2-fluoro-5-hydroxy-4-methylphenyl)amino]-6,11-dihydro-5H-pyrido[2,3-b][1,5]benzodiazepin-5-one]
10.1 nM	Cc1cc(F)c(Nc2ccnc3c2C(=O)Nc2cc(C(=O)N4CCCC(O)C4)ccc2N3)cc1O (racemic) [Example 82, rac-4-[(2-Fluoro-5-hydroxy-4-methylphenyl)amino]-8-[(3-hydroxypiperidin-1-yl)carbonyl]-6, 11-dihydro-5H-pyrido[2,3-b][1,5]benzodiazepin-5-one]
3.51 nM	Cc1cc(F)c(Nc2ccnc3c2C(=O)Nc2cc(CN4CCCC(OCC(F)(F)F)C4)ccc2N3)cc1O (racemic) [Example 89, rac-4-[(2-Fluoro-5-hydroxy-4-methylphenyl)amino]-8-{[3-(2,2,2-trifluoroethoxy)piperidin-1-yl]methyl}-6,11-dihydro-5H-pyrido[2,3-b][1,5]benzodiazepin-5-one]
5.02 nM	Cc1cc(F)c(Nc2ccnc3c2C(=O)Nc2cc(CN4CCC(O)C(C)(C)C4)ccc2N3)cc1O (racemic) [Example 166, rac-4-[(2-Fluoro-5-hydroxy-4-methylphenyl)amino]-8-[(4-hydroxy-3,3-dimethylpiperidin-1-yl)methyl]-6,11-dihydro-5H-pyrido[2,3-b][1,5]benzodiazepin-5-one]
1.71 nM	Cc1cc(F)c(Nc2ccnc3c2C(=O)Nc2cc(CN4CCC(CO)C4)ccc2N3)cc1O (racemic) [Example 177, rac-4-[(2-Fluoro-5-hydroxy-4-methylphenyl)amino]-8-{[3-(hydroxymethyl)pyrrolidin-1-yl]methyl}-6,11-dihydro-5H-pyrido[2,3-b][1,5]benzodiazepin-5-one]
14.6 nM	Cc1cc(F)c(Nc2ccnc3c2C(=O)Nc2cc(C(=O)N4CCCC(CCO)C4)ccc2N3)cc1O (racemic) [Example 179, rac-4-[(2-Fluoro-5-hydroxy-4-methylphenyl)amino]-8-{[3-(2-hydroxyethyl)piperidin-1-yl]carbonyl}-6,11-dihydro-5H-pyrido[2,3-b][1,5]benzodiazepin-5-one]
8.91 nM	Cc1cc(F)c(Nc2ccnc3c2C(=O)Nc2cc(C(=O)N4CCC(CCO)C4)ccc2N3)cc1O (racemic) [Example 181, rac-4-[(2-Fluoro-5-hydroxy-4-methylphenyl)amino]-8-{[3-(2-hydroxyethyl)pyrrolidin-1-yl]carbonyl}-6,11-dihydro-5H-pyrido[2,3-b][1,5]benzodiazepin-5-one]
1.92 nM	Cc1cc(F)c(Nc2ccnc3c2C(=O)Nc2cc(CN4CCN5C(=O)C(C)NC(=O)C5C4)ccc2N3)cc1O (racemic) [Example 194, rac-8-({4-[(2-Fluoro-5-hydroxy-4-methylphenyl)amino]-5-oxo-6,11-dihydro-5H-pyrido[2,3-b][1,5]benzodiazepin-8-yl}methyl)-3-methyltetrahydro-2H-pyrazino[1,2-a]pyrazine-1,4(3H,6H)-dione]
1.71 nM	CCN(Cc1ccc2c(c1)NC(=O)c1c(Nc3cc(O)c(C)cc3F)ccnc1N2)CC(C)O (racemic) [Example 204, rac-8-{[Ethyl(2-hydroxypropyl)amino]methyl}-4-[(2-fluoro-5-hydroxy-4-methylphenyl)amino]-6,11-dihydro-5H-pyrido[2,3-b][1,5]benzodiazepin-5-one]
1.76 nM	CCN(Cc1ccc2c(c1)NC(=O)c1c(Nc3cc(O)c(C)cc3F)ccnc1N2)CC(C)O (single isomer, unassigned; ent-8) [Example 205, ent-8-{[Ethyl(2-hydroxypropyl)amino]methyl}-4-[(2-fluoro-5-hydroxy-4-methylphenyl)amino]-6,11-dihydro-5H-pyrido[2,3-b][1,5]benzodiazepin-5-one (Enantiomer 1)]
1.55 nM	CCN(Cc1ccc2c(c1)NC(=O)c1c(Nc3cc(O)c(C)cc3F)ccnc1N2)CC(C)O (single isomer, unassigned; ent-8) [Example 206, ent-8-{[Ethyl(2-hydroxypropyl)amino]methyl}-4-[(2-fluoro-5-hydroxy-4-methylphenyl)amino]-6,11-dihydro-5H-pyrido[2,3-b][1,5]benzodiazepin-5-one (Enantiomer 2)]
5.43 nM	Cc1ccc(O)cc1Nc1ccnc2c1C(=O)Nc1cc(C#N)ccc1N2 [Example 1, 4-[(5-Hydroxy-2-methylphenyl)amino]-5-oxo-6,11-dihydro-5H-pyrido[2,3-b][1,5]benzodiazepine-8-carbonitrile]
862 nM	CCCc1ccc(Nc2ccnc3c2C(=O)Nc2cc(C#N)ccc2N3)cc1O [Example 2, 4-[(3-Hydroxy-4-propylphenyl)amino]-5-oxo-6,11-dihydro-5H-pyrido[2,3-b][1,5]benzodiazepine-8-carbonitrile]
3.82 nM	Cc1ccc(Nc2ccnc3c2C(=O)Nc2cc(C#N)ccc2N3)cc1O [Example 3, 4-[(3-Hydroxy-4-methylphenyl)amino]-5-oxo-6,11-dihydro-5H-pyrido[2,3-b][1,5]benzodiazepine-8-carbonitrile]
352 nM	CCOC(=O)Nc1ccc(Nc2ccnc3c2C(=O)Nc2cc(C#N)ccc2N3)cc1O [Example 4, Ethyl {4-[(8-cyano-5-oxo-6,11-dihydro-5H-pyrido[2,3-b][1,5]benzodiazepin-4-yl)amino]-2-hydroxyphenyl}carbamate]
689 nM	N#Cc1ccc2c(c1)NC(=O)c1c(Nc3ccc(NS(=O)(=O)c4ccccc4)c(O)c3)ccnc1N2 [Example 6, N-{4-[(8-Cyano-5-oxo-6,11-dihydro-5H-pyrido[2,3-b][1,5]benzodiazepin-4-yl)amino]-2-hydroxyphenyl}benzenesulphonamide]
9.47 nM	N#Cc1ccc2c(c1)NC(=O)c1c(Nc3cc(O)c(Br)cc3F)ccnc1N2 [Example 7, 4-[(4-Bromo-2-fluoro-5-hydroxyphenyl)amino]-5-oxo-6,11-dihydro-5H-pyrido[2,3-b][1,5]benzodiazepine-8-carbonitrile]
4.76 nM	N#Cc1ccc2c(c1)NC(=O)c1c(Nc3cc(O)c(F)c(F)c3)ccnc1N2 [Example 8, 4-[(3,4-Difluoro-5-hydroxyphenyl)amino]-5-oxo-6,11-dihydro-5H-pyrido[2,3-b][1,5]benzodiazepine-8-carbonitrile]
3.83 nM	COc1cc(O)cc(Nc2ccnc3c2C(=O)Nc2cc(C#N)ccc2N3)c1 [Example 9, 4-[(3-Hydroxy-5-methoxyphenyl)amino]-5-oxo-6,11-dihydro-5H-pyrido[2,3-b][1,5]benzodiazepine-8-carbonitrile]
65.9 nM	N#Cc1ccc2c(c1)NC(=O)c1c(Nc3cc(O)c(Cl)cc3Cl)ccnc1N2 [Example 10, 4-[(2,4-Dichloro-5-hydroxyphenyl)amino]-5-oxo-6,11-dihydro-5H-pyrido[2,3-b][1,5]benzodiazepine-8-carbonitrile]
4.03 nM	N#Cc1ccc2c(c1)NC(=O)c1c(Nc3ccc(Cl)c(O)c3)ccnc1N2 [Example 11, 4-[(4-Chloro-3-hydroxyphenyl)amino]-5-oxo-6,11-dihydro-5H-pyrido[2,3-b][1,5]benzodiazepine-8-carbonitrile]
